Results on 3 compounds are retold here after patent US10570149B2, “Tricyclic heterocylic derivatives” (MERCK PATENT GMBH, priority 2016, dated 2020).

pIC50, pKi: −log10 of the molar value.

Data set [1] relates to phosphorylation of Chk1 (Ser 345) in HT29 colon adenocarcinoma cells. In words: pCHK1 cellular assay. Conditions: Homo sapiens. It is filed as cell-based. In outline: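 HT29 cells plated ≥20 h, then compound (1 nM–30 μM final) with hydroxyurea (3 mM final) added together for 4 h at 37 °C. After MeOH/Triton fixation-permeabilisation, anti-pChk1 immunostaining plus nuclear stain; nuclear pChk1 imaged by confocal high content reader, reported as % positive nuclei.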

Data set [2] addresses T1, Kv11.1 (hERG) ion channel (Homo sapiens, UniProt Q12809).
T1 construct: expressed in transfected cells; host or cells: HEK293
In words: Kv11.1 (hERG) ion channel activity, whole cell patch clamp. It is filed as cell-based. Conditions: for pKi: Table 3, HEK293 hERG patch clamp. The procedure:
Kv11.1 (hERG) Ion Channel Activity
In this assay, a potential in vitro effect of test compounds on the Kv11.1 (hERG) ion channel current is investigated which mediates the rapidly activating, delayed rectifier cardiac potassium current (IKr). The assay is performed with a stable Kv11.1 (hERG) transfected human embryonic kidney cell line (HEK293) by whole cell patch clamp technique carried out at room temperature.
The Kv11.1 (hERG) ion channel blocker quinidine is used as reference compound. The effects of the test compounds and quinidine are normalized to the corresponding vehicle control. The whole cell recordings are carried out with an automated patch clamp device Patchliner™, Nanion Technologies, Munich). Hereby the Patch Clamp measurements run on silicate-coated chips with a hole of a defined diameter. Solutions, cell suspension and compounds are applied by a Teflon-laminated pipette needle through microfluidic silicate-laminated channels. Commercial patch clamp amplifiers (EPC10, HEKA Elektronik Dr. Schulze GmbH, Germany) are used for the patch clamp recordings. HEK293 cells stably expressing the hERG gene are held at −80 mV. Steady-state inhibition of Kv11.1 (hERG) potassium current due to test/reference compound application is measured using a pulse pattern with fixed amplitudes: 51 ms/−80 mV, 500 ms/+40 mV, 500 ms/−40 mV, 200 ms/−80 mV. The hERG-specific voltage protocol is repeated at 10 s intervals. The leak current is subtracted by a P4 leak subtraction. Cells are resuspended in extracellular patch clamp solution (EC) and applied into the chip. After trapping the cell, the EC is exchanged by seal enhancer solution (SE) to improve the sealing procedure. When the whole cell configuration is attained, seal enhancer is washed out by the application of EC. The recording is started in EC for 1.5 min. Afterwards DMSO (vehicle control, 0.1% DMSO) is applied and the control current is measured for 3 min. Following control steady-state current, test compound is applied twice at the same concentration and the tail current is measured for 3.5 min each. For the determination of a concentration-relationship, the test compound is applied as a cumulative concentration-response curve and each concentration is measured for 5 min. The reference compound quinidine is treated in the same way. The effect on Kv11.1 (hERG) ion channel activity is judged from the tail current amplitude monitored at −40 mV (current of interest, COI). Results are calculated from the last recorded current traces. Changes in Kv11.1 (hERG) ion channel activity between control value, defined as 100% Kv11.1 (hERG) ion channel activity, application of test compound and application of quinidine is reported as percent change of control value of COI. An aliquot of test compound is collected for concentration verification during the recording. The sample is immediately measured by HPLC and the final compound concentration within the assay is calculated according to a calibration curve.

The next data set concerns the target T2, ATR/ATRIP (Homo sapiens, UniProt Q13535).
T2 construct: human ATR, full length, GenBank ID: NM_001184.3; p53: Sf21 insect cells
The experiment in a line: ATR/ATRIP kinase assay (TR-FRET, p53 phosphorylation). It is filed as biochemical. The note with it: Table 1, class symbols; read-out: ATR-ATRIP IC50.

[3] abbreviates: HT-29, Table 1, class symbols, hydroxyurea.

T2 sequence (Q13535 whole entry): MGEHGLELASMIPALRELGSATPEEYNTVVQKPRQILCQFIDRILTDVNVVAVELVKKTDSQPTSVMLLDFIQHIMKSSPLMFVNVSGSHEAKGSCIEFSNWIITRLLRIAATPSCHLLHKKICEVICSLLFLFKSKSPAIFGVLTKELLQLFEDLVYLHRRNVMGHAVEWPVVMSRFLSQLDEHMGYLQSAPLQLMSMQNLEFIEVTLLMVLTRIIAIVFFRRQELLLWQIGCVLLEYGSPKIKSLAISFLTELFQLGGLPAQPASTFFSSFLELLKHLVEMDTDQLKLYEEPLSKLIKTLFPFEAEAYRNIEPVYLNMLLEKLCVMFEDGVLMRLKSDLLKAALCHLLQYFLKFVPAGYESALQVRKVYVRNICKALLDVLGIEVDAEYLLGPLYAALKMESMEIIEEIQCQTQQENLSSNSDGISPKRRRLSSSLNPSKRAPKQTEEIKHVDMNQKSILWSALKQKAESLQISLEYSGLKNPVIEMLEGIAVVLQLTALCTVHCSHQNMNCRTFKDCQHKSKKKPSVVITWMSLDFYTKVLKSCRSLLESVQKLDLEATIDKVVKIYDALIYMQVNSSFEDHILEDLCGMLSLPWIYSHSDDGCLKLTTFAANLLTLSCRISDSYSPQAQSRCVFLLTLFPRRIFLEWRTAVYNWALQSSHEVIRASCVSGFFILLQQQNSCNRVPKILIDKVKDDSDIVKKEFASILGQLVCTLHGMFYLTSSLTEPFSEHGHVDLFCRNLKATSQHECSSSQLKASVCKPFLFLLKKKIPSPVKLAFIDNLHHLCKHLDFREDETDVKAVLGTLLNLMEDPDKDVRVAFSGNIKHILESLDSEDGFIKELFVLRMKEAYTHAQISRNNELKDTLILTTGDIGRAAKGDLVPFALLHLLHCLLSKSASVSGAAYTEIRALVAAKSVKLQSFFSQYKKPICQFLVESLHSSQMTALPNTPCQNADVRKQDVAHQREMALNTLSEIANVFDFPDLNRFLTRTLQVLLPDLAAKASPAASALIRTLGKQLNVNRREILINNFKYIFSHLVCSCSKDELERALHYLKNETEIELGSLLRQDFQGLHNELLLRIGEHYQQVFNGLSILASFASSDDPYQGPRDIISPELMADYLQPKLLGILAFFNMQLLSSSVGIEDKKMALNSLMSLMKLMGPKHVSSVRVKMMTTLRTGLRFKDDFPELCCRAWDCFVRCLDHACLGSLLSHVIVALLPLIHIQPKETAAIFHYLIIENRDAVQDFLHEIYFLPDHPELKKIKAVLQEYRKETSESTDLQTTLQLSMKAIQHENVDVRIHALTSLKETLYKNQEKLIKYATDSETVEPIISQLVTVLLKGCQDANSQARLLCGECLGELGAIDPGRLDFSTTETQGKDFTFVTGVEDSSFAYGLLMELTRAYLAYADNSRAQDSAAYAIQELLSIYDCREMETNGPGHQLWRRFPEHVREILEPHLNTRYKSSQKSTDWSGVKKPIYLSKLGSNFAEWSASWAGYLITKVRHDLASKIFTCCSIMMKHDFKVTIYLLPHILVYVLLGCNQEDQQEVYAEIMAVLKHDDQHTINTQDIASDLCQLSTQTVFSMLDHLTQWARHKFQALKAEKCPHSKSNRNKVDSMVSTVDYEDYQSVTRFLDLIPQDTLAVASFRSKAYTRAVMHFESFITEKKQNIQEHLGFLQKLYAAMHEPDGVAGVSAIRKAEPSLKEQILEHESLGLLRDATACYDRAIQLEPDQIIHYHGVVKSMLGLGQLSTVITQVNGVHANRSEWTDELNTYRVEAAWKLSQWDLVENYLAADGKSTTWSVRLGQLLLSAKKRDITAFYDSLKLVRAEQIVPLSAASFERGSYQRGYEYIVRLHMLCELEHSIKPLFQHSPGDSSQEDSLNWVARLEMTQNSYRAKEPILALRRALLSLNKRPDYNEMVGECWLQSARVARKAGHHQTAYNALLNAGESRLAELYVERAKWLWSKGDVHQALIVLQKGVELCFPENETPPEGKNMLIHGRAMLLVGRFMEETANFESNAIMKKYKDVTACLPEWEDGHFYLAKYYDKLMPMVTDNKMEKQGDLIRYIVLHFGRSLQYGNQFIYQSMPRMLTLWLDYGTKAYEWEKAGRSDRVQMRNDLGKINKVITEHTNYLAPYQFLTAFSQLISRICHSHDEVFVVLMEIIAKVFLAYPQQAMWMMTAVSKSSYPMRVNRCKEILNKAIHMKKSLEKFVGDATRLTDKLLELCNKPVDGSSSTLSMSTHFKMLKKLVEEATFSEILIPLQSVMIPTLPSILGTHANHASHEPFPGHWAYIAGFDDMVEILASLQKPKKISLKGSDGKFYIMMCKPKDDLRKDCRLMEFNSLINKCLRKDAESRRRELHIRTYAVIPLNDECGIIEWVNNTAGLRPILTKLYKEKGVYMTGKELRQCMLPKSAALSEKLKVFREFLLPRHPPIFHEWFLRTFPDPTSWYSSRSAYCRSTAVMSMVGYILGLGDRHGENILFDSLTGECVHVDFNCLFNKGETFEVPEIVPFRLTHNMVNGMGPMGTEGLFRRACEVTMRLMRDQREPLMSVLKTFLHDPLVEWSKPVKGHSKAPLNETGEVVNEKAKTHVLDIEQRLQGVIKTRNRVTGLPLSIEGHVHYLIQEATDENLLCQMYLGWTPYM
T2 sequence (Q8WXE1 whole entry partner): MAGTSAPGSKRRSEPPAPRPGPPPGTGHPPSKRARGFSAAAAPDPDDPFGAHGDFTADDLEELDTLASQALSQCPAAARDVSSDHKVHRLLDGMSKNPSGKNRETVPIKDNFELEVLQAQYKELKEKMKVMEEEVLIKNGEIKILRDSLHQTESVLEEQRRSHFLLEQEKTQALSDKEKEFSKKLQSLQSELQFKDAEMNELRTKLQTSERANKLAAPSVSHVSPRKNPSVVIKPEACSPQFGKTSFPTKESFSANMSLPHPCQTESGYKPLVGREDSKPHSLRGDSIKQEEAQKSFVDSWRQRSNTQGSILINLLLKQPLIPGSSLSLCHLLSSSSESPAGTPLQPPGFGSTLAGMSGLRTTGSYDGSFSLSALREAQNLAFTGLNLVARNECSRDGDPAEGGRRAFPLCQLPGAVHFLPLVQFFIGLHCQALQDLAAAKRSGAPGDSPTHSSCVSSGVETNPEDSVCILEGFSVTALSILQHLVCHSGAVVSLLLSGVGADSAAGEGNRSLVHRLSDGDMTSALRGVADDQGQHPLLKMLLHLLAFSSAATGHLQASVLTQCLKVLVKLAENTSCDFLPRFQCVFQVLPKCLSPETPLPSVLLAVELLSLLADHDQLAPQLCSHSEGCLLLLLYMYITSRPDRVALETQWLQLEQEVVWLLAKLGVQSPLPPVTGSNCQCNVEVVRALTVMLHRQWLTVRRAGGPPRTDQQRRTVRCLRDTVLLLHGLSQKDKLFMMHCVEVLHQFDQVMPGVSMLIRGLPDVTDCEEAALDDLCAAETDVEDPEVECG
T1 sequence (Q12809 whole entry): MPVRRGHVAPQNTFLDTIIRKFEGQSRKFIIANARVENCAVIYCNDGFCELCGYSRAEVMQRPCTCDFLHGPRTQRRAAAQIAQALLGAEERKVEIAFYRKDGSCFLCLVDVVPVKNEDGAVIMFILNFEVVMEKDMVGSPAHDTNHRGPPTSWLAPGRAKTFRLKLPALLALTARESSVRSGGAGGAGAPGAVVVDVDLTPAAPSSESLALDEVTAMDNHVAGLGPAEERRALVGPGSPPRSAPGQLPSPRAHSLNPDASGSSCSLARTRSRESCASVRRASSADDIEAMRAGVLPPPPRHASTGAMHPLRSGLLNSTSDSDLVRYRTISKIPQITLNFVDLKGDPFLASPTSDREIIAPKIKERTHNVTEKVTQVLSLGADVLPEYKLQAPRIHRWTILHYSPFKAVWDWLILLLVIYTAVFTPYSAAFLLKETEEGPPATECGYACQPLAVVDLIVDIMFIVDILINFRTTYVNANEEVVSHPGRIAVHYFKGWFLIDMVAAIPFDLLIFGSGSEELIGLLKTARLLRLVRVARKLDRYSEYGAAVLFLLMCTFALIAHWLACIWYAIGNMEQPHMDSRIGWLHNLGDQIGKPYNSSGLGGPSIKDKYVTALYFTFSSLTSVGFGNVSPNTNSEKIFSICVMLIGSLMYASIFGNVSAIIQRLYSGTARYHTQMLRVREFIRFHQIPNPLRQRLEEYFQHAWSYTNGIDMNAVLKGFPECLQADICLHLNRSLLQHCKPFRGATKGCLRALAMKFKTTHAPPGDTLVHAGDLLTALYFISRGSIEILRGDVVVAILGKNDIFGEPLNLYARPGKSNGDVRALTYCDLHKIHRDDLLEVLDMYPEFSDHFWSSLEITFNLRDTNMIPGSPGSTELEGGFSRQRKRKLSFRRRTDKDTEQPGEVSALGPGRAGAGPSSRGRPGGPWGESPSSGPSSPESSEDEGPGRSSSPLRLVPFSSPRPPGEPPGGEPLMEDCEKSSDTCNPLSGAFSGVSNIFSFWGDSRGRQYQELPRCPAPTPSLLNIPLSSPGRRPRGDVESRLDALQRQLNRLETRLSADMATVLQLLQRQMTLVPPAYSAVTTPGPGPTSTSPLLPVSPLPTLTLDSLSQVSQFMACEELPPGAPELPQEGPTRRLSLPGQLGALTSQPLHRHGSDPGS

As to `CNc1cnc2[nH]ccc2c1-c1nc2c(c(C(C)(C)S(C)(=O)=O)n1)OC[C@@H]1COC[C@@H](C)N21` [A1, {4-[(S)-1-(1-Methanesulfonyl-1-methyl-ethyl)-5-(R)-methyl-5,6,8a,9-tetrahydro-8H-7,10-dioxa-2,4,4b-triaza-phenanthren-3-yl]-1H-pyrrolo[2,3-b]pyridin-5-yl}-methyl-amine], the pIC50 is above 8.00 in data set [1] (setting [3]); 8.21 in data set [1] (HT-29, Table 3, hydroxyurea); above 9.00 at ATR/ATRIP. Besides, the “hERG % effect @ conc” value in data set [2] (@ 30 μM) is recorded as “(−50% @ 30 μM)”. In data set [2], this compound gave a pKi below 4.52.
On to `C[C@@H]1COC[C@H]2COc3c(nc(-c4ccnc5[nH]ccc45)nc3C(C)(C)S(C)(=O)=O)N21` [A13, (6R,8aS)-1-(1-Methanesulfonyl-1-methyl-ethyl)-5-methyl-3-(1H-pyrrolo[2,3-b]pyridin-4-yl)-5,6,8a,9-tetrahydro-8H-7,10-dioxa-2,4,4b-triaza-phenanthrene], for which the pIC50 was 7.00 to 8.00 in data set [1] (setting [3]); 7.70 in data set [1] (HT-29, Table 3, hydroxyurea); above 9.00 on ATR/ATRIP. Further, in data set [2] (@ 10 μM), the “hERG % effect @ conc” value is on record as “(−55% effect @ 10 μM)”. Further, the pKi in data set [2] was 5.19.
As to `C[C@@H]1COC[C@H]2COc3c(nc(-c4c(N)cnc5[nH]ccc45)nc3C(C)(C)S(C)(=O)=O)N21` [A20, 4-[(4bR,8S)-1-(1-Methanesulfonyl-1-methyl-ethyl)-5-methyl-5,6,8a,9-tetrahydro-8H-7,10-dioxa-2,4,4b-triaza-phenanthren-3-yl]-1H-pyrrolo[2,3-b]pyridin-5-ylamine], the pIC50 was 7.00 to 8.00 in data set [1] (setting [3]); 7.44 in data set [1] (HT-29, Table 3, hydroxyurea); above 9.00 on ATR/ATRIP. In addition, in data set [2] (@ 10 μM), the “hERG % effect @ conc” value is given as “(−19% effect @ 10 μM)”. In data set [2], this compound gave a negative logarithm of the Ki (pKi) below 5.00.
